{
  "source": "patent US4567293A",
  "about": "“2-[Para-(2-substituted or unsubstituted-3,3,3-tri-fluoropropyl)phenyl]propionic acid or a salt thereof” (Kureha Kagaku Kogyo Kabushiki Kaisha, priority 1981, dated 1986)",
  "key": {"[1]": {"system": "carrageenin-induced edema", "assay": "Anti-inflammatory activity: inhibition of carrageenin-induced edema (Example 6)", "type": "in vivo, rat (female Wister)", "details": "4 hours after carrageenin", "method": "Anti-inflammatory activity of the present compound was examined by using 10 female Wister rats of 110 to 130 g of body weight as one group following the method of C. A. Winter [refer to Proc. Soc. Exp. Biol. Med., 111, 544(1962)]in which the ratio of inhibiting the carrageenin-induced edema is determined.\n(§1) An aqueous suspension of each specimen in an aqueous 1% carboxymethoxycellulose solution was orally administered to the rat in volume of 1 ml per 100 g body weight. The rat as the control group was administered with only an aqueous 1% solution of carboxymethoxycellulose. One hour after the administration, 0.1 ml of an aqueous 1% solution of carrageenin in physiological saline was injected into the plantar tissue of the right hind paw of the rat. Then, after 4 hours from the injection, the volume of the injected foot was measured to find the volume of swelling by subtracting the volume of foot before the injection from that value.\n(§2) By comparing the volume of the swelling of the administered group to that of the control group, the ratio of inhibiting the swelling (I.R., %) was calculated according to the following formula: [formula] wherein T represents the average volume of swelling in the group administered with the specimen, and\n(§3) C represents the average volume of swelling in the control group."}, "in vivo": {"assay": "in vivo", "details": "oral, mouse, in olive oil, 14 days observation", "method": "Acute toxicity of the present compound were determined as follows.\nEach of the specimens was dispersed in an olive oil. The dispersion was administered to an ICR-JCL mouse orally by a stomach sonde at a predetermined amount. After administration, the intoxication symptoms were continuously observed for 14 days. LD50 value was obtained from the cumulative mortality of the mice by applying the data to the Litchfield-Wilcoxon's graphical method."}, "[2]": {"system": "carrageenin-induced edema", "assay": "Anti-inflammatory activity: inhibition of carrageenin-induced edema (Example 7, rats of 92 to 112 g)", "type": "in vivo, rat (female Wister)", "method": "[…] A. Winter [refer to Proc. Soc.\nas §1, §2, §3"}},
  "data": [
    {"smiles": "CC(C(=O)O)c1ccc(CC(C(F)(F)F)C(F)(F)F)cc1", "note": "(centres unmarked) [Specimen I, 2-[p-(2-trifluoromethyl-3,3,3-trifluoropropyl)phenyl]propionic acid]", "values": [
      {"measurement": "Inhibitation of carrageenin-induced edema", "setting": "[1]; oral dose 2.5 mg/Kg", "result": 37, "unit": "%"},
      {"measurement": "Inhibitation of carrageenin-induced edema", "setting": "[1]; oral dose 5 mg/Kg", "result": 40, "unit": "%"},
      {"measurement": "Inhibitation of carrageenin-induced edema", "setting": "[1]; oral dose 10 mg/Kg", "result": 46, "unit": "%"},
      {"measurement": "Inhibitation of carrageenin-induced edema", "setting": "[1]; oral dose 25 mg/Kg", "result": 50, "unit": "%"},
      {"measurement": "Inhibitation of carrageenin-induced edema", "setting": "[1]; oral dose 50 mg/Kg", "result": 55, "unit": "%"},
      {"measurement": "Inhibitation of carrageenin-induced edema", "setting": "[1]; oral dose 100 mg/Kg", "result": 57, "unit": "%"},
      {"measurement": "Inhibitation of carrageenin-induced edema", "setting": "[1]; oral dose 200 mg/Kg", "result": 63, "unit": "%"},
      {"measurement": "LD50 at 336 h", "setting": "in vivo", "result": 1100, "unit": "mg/kg"}
    ]},
    {"smiles": "CC(C(=O)O)c1ccc(CC(C)C(F)(F)F)cc1", "note": "(centres unmarked) [Specimen II, 2-[p-(2-methyl-3,3,3-trifluoropropyl)phenyl]propionic acid]", "values": [
      {"measurement": "Inhibitation of carrageenin-induced edema", "setting": "[1]; oral dose 5 mg/Kg", "result": 37, "unit": "%"},
      {"measurement": "Inhibitation of carrageenin-induced edema", "setting": "[1]; oral dose 10 mg/Kg", "result": 40, "unit": "%"},
      {"measurement": "Inhibitation of carrageenin-induced edema", "setting": "[1]; oral dose 50 mg/Kg", "result": 50, "unit": "%"},
      {"measurement": "Inhibitation of carrageenin-induced edema", "setting": "[1]; oral dose 100 mg/Kg", "result": 54, "unit": "%"},
      {"measurement": "Inhibitation of carrageenin-induced edema", "setting": "[1]; oral dose 200 mg/Kg", "result": 65, "unit": "%"},
      {"measurement": "LD50 at 336 h", "setting": "in vivo", "result": 1040, "unit": "mg/kg"}
    ]},
    {"smiles": "CC(C(=O)O)c1ccc(CCC(F)(F)F)cc1", "note": "(centres unmarked) [Specimen III, 2-[p-(3,3,3-trifluoropropyl)phenyl]propionic acid]", "values": [
      {"measurement": "LD50 at 336 h", "setting": "in vivo", "result": 1000, "unit": "mg/kg"},
      {"measurement": "Inhibition of carrageenin-induced edema", "setting": "[2]; oral dose 25 mg/kg", "result": 38, "unit": "%"},
      {"measurement": "Inhibition of carrageenin-induced edema", "setting": "[2]; oral dose 100 mg/kg", "result": 44, "unit": "%"}
    ]},
    {"smiles": "CC(C)Cc1ccc(C(C)C(=O)O)cc1", "note": "(centres unmarked) [Specimen IV, 2-(p-isobutylphenyl)propionic acid, reference compound]", "values": [
      {"measurement": "Inhibitation of carrageenin-induced edema", "setting": "[1]; oral dose 25 mg/Kg", "result": 29, "unit": "%"},
      {"measurement": "Inhibitation of carrageenin-induced edema", "setting": "[1]; oral dose 50 mg/Kg", "result": 40, "unit": "%"},
      {"measurement": "Inhibitation of carrageenin-induced edema", "setting": "[1]; oral dose 100 mg/Kg", "result": 42, "unit": "%"},
      {"measurement": "Inhibitation of carrageenin-induced edema", "setting": "[1]; oral dose 200 mg/Kg", "result": 52, "unit": "%"}
    ]},
    {"smiles": "CC(=O)Oc1ccccc1C(=O)O", "note": "[Specimen V, acetyl salicyclic acid, reference compound]", "values": [
      {"measurement": "Inhibition of carrageenin-induced edema", "setting": "[2]; oral dose 25 mg/kg", "result": 10, "unit": "%"},
      {"measurement": "Inhibition of carrageenin-induced edema", "setting": "[2]; oral dose 100 mg/kg", "result": 28, "unit": "%"}
    ]}
  ]
}
